Test results from US12144795B2, “Cannabidiol compositions having modified cannabinoid profiles” (priority 2018, dated 2024).

How the values were obtained:
[1] = HPLC method quantifying low levels of D9-THC in stored cannabidiol samples; format: physicochemical; settings: after stored for 23 days at 55-60° C.
Protocol: An analytical method using HPLC was developed to determine low levels of delta-9-tetrahydrocannabinol in cannabidiol samples. A Waters XBridge C18 3.5 μm, 3.0×150 mm column was employed and operated at a temperature of 30° C., UV wavelength of 225 nm, and injection size of 20 μL. Mobile Phase A was 0.02% (v/v) acetic acid in H2O, while mobile phase B was 0.02% (v/v) acetic acid in acetonitrile (ACN).
An aliquot of 0.5 mL of a D9-THC reference standard (Cerilliant, 1.0 mg/mL MeOH solution) was diluted in a 500-mL volumetric flask using sample diluent (70/30 Acetonitrile/H2O, v/v). The D9-THC concentration was 0.001 mg/mL in the standard stock solution, which corresponded with 200 ppm of D9-THC as compared to the CBD sample solution (nominal CBD concentration was 5.0 mg/mL).
An Aliquot of 5 mL of THC Stock Standard Solution was diluted in a 100-mL volumetric flask using the sample diluent. The D9-THC concentration was 0.00005 mg/mL in the working standard solution, corresponding with 10 ppm of D9-THC as compared to the CBD sample solution.
About 50 mg of cannabidiol sample was weighed into a 10-mL volumetric flask. The volumetric flask was diluted to volume using sample diluent and mixed well.
A minimum of 6 working standard solutions were injected prior to the sample set. Furthermore, a maximum of 6 injections of CBD sample were injected between bracketing working standard solutions.
The amount of THC in each sample was calculated using the following
For reference, each chromatogram in FIG. 6A through FIG. 6F is shown against a 10 ppm THC working standard. For samples 1, 2, and 3, roughly 50.28 mg, 50.77 mg, and 55.60 mg material was used.

[2] = Particle size distribution (Mastersizer 2000 laser diffraction, Morphologi G3); format: physicochemical
Text: A Mastersizer 2000 was used to analyze the particle size distribution in cannabidiol samples. This method involved laser diffraction to measure the particle size distribution by the volume standard. Roughly 1 g of each sample was weighed and transferred along the middle of the sample tray. The sample feed gates were 6 mm-8 mm. The instrument software parameters were set to a dispersive air pressure of 3 bar, vibration feed rate of 60%, refractive index of 1.5295, absorption index of 0.01, and size range from 0.020 μm to 2000.000 μm. FIG. 8A-FIG. 8R show the result analysis report for each sample measured as well as their respective particle size distribution graph. Malvern Pananalytical's Morphologi G3 Analyzer was used in another series of experiments to examine sample volume size distribution.

| SMILES | Result (D9-THC in ppm) [1] [ppm] | Malvern 2K (dry dispersion) D10 [2] | Malvern 2K (dry dispersion) D50 [2] | Malvern 2K (dry dispersion) D90 [2] |
| --- | --- | --- | --- | --- |
| C=C(C)[C@@H]1CCC(C)=C[C@H]1c1c(O)cc(CCCCC)cc1O [Sample 1, Cannabidiol] | 1.9 | D10: 7.8 um | D50: 21.8 um | D90: 152.9 um |
| C=C(C)[C@@H]1CCC(C)=C[C@H]1c1c(O)cc(CCCCC)cc1O [Sample 2, Cannabidiol] | 5.9 | D10: 8.0 um | D50: 23.9 um | D90: 157.5 um |
